Converted amounts (≈) assume the structure as drawn. Each block holds one molecule with its values, some of them ahead of it.
Experiments:
Test in all cases: ≥ marks a high value that may be exact or a test limit, other limits are often not marked, values filed in µg/mL are converted to µM
[1] = tested on: Acinetobacter baumannii CCARM 12036
[2] = tested on: Pseudomonas aeruginosa CCARM 2003
[3] = tested on: Escherichia coli CCARM 1229
[4] = tested on: Staphylococcus aureus KCTC 3881
[5] = tested on: Salmonella typhimurium CCARM 8007
[6] = tested on: Pseudomonas aeruginosa KCTC 1637
[7] = tested on: Salmonella typhimurium KCTC 1926
[8] = tested on: Staphylococcus aureus CCARM 3126
[9] = tested on: Escherichia coli KCTC 2571
[10] = tested on: Acinetobacter baumannii CCARM 12035
[11] = tested on: Bacillus subtilis KCTC 3068
[12] = tested on: Bacillus subtilis KCTC 1022
[13] = tested on: Salmonella typhimurium CCARM 8009
[14] = tested on: Staphylococcus aureus CCARM 3089
[15] = tested on: Acinetobacter baumannii CCARM 12005
[16] = tested on: Staphylococcus epidermidis KCTC 1917
[17] = tested on: Staphylococcus aureus CCARM 3114
[18] = tested on: Salmonella typhimurium CCARM 8003
[19] = tested on: Pseudomonas aeruginosa KCTC 2513
[20] = tested on: Staphylococcus aureus CCARM 3090
[21] = tested on: Staphylococcus aureus KCTC 1621
[22] = tested on: Bacillus subtilis KCTC 1021
[23] = tested on: Pseudomonas aeruginosa CCARM 2095
[24] = tested on: Pseudomonas aeruginosa CCARM 2163
[25] = tested on: Escherichia coli KCTC 1682
[26] = tested on: Acinetobacter baumannii CCARM 12037
[27] = tested on: Pseudomonas aeruginosa KCTC 2004
[28] = tested on: Staphylococcus aureus KCTC 1916
[29] = tested on: Staphylococcus aureus CCARM 3108
[30] = tested on: Escherichia coli CCARM 1238
[31] = tested on: Pseudomonas aeruginosa CCARM 2002
[32] = tested on: Escherichia coli KCTC 2593
[33] = tested on: Erwinia amylovora PMV 6076
[34] = tested on: Xanthomonas campestris pv. Vesicatoria 2133-2
[35] = tested on: Pseudomonas syringae pv. syringae EPS 94
[36] = tested on: Staphylococcus aureus AS1.72
[37] = tested on: Escherichia coli AS1.349
[38] = tested on: Proteus mirabilis CICC 22931
[39] = tested on: Enterococcus faecalis CGMCC 1.595
[40] = tested on: Enterobacter cloacae CGMCC 1.58
[41] = tested on: Pseudomonas aeruginosa CGMCC 1.860
[42] = tested on: Enterococcus faecium CGMCC 1.2334
[43] = tested on: Lactococcus lactis AS1.1690
[44] = tested on: Bacillus cereus AS1.126
[45] = tested on: Klebsiella pneumoniae subsp. pneumoniae CGMCC 1.176
[46] = tested on: Klebsiella aerogenes CGMCC 1.876
[47] = tested on: Acinetobacter baumannii CICC 22934
[48] = tested on: Escherichia coli DL7
[49] = tested on: Bacillus subtilis PS832
[50] = tested on: Klebsiella aerogenes ATCC 13048
[51] = tested on: Staphylococcus epidermidis ATCC 12228

- MIC [1]: 4 µM (≈ 10.3 µg/mL)
- MIC [2]: 4 µM (≈ 10.3 µg/mL)
- MIC [3]: 8 µM (≈ 20.7 µg/mL)
- MIC [4]: 4 µM (≈ 10.3 µg/mL)
- MIC [5]: 8 µM (≈ 20.7 µg/mL)
- MIC [6]: 4 µM (≈ 10.3 µg/mL)
- MIC [7]: 8 µM (≈ 20.7 µg/mL)
- MIC [8]: 8 µM (≈ 20.7 µg/mL)
- MIC [9]: 4 µM (≈ 10.3 µg/mL)
- MIC [10]: 4 µM (≈ 10.3 µg/mL)
- MIC [11]: 4 µM (≈ 10.3 µg/mL)
- MIC [12]: 4 µM (≈ 10.3 µg/mL)
- MIC [13]: 8 µM (≈ 20.7 µg/mL)
- MIC [14]: 8 µM (≈ 20.7 µg/mL)
- MIC [15]: 4 µM (≈ 10.3 µg/mL)
- MIC [16]: 4 µM (≈ 10.3 µg/mL)
- MIC [17]: 8 µM (≈ 20.7 µg/mL)
- MIC [18]: 16 µM (≈ 41.3 µg/mL)
- MIC [19]: 8 µM (≈ 20.7 µg/mL)
- MIC [20]: 8 µM (≈ 20.7 µg/mL)
- MIC [21]: 4 µM (≈ 10.3 µg/mL)
- MIC [22]: 8 µM (≈ 20.7 µg/mL)
- MIC [23]: 2 µM (≈ 5.16 µg/mL)
- MIC [24]: 2 µM (≈ 5.16 µg/mL)
- MIC [25]: 2 µM (≈ 5.16 µg/mL)
- MIC [26]: 4 µM (≈ 10.3 µg/mL)
- MIC [27]: 8 µM (≈ 20.7 µg/mL)
- MIC [28]: 4 µM (≈ 10.3 µg/mL)
- MIC [29]: 8 µM (≈ 20.7 µg/mL)
- MIC [30]: 8 µM (≈ 20.7 µg/mL)
- MIC [31]: 4 µM (≈ 10.3 µg/mL)
- MIC [32]: 4 µM (≈ 10.3 µg/mL)
Compound: CC[C@H](C)[C@H](NC(=O)CNC(=O)[C@H](CCCN=C(N)N)NC(=O)[C@H](CCCCN)NC(=O)[C@@H](NC(=O)[C@H](Cc1cnc[nH]1)NC(=O)[C@H](Cc1cnc[nH]1)NC(=O)[C@H](Cc1ccccc1)NC(=O)[C@@H](N)Cc1ccccc1)[C@@H](C)CC)C(=O)N[C@@H](CCCCN)C(=O)N[C@@H](Cc1cnc[nH]1)C(=O)N[C@H](C(=O)NCC(=O)N[C@@H](CCCCN)C(=O)N[C@H](C(=O)N[C@H](C(=O)N[C@@H](Cc1cnc[nH]1)C(=O)N[C@@H](CCCN=C(N)N)C(=O)N[C@@H](CC(C)C)C(=O)N[C@H](C(=O)N[C@H](C(=O)NCC(=O)O)[C@@H](C)O)C(C)C)[C@@H](C)CC)[C@@H](C)O)C(C)C [FFHHIKRGIKHVGKTIHRLVTG]

- MIC [33]: 3.54 µM (≈ 7.9 µg/mL)
- MIC [34]: 3.54 µM (≈ 7.9 µg/mL)
- MIC [35]: 3.54 µM (≈ 7.9 µg/mL)
Compound: CC[C@H](C)[C@H](NC(=O)[C@H](CCCCN)NC(=O)[C@H](CCCCN)NC(=O)[C@H](Cc1ccccc1)NC(=O)[C@H](CC(C)C)NC(=O)[C@H](CCCCN)NC(=O)[C@@H](N)CCCCN)C(=O)N[C@@H](CC(C)C)C(=O)N[C@@H](CCCCN)C(=O)N[C@@H](Cc1ccc(O)cc1)C(=O)N[C@@H](CC(C)C)C(=O)N[C@@H](CCCCN)C(=O)N[C@@H](Cc1ccccc1)C(=O)N[C@@H](CC(C)C)C(=O)N[C@@H](Cc1cnc[nH]1)C(=O)N[C@@H](CO)C(=O)N[C@@H](C)C(=O)N[C@@H](CCCCN)C(=O)O [KKLFKKILKYLKFLHSAK]

- MIC [36]: 3.13 µM (≈ 7.1 µg/mL)
- MIC [37]: ≥ 100 µM
- MIC [38]: ≥ 100 µM
- MIC [39]: 4.69 µM (≈ 10.6 µg/mL)
- MIC [40]: ≥ 100 µM
- MIC [41]: ≥ 100 µM
- MIC [42]: 4.69 µM (≈ 10.6 µg/mL)
- MIC [43]: 4.69 µM (≈ 10.6 µg/mL)
- MIC [44]: 2.34 µM (≈ 5.31 µg/mL)
- MIC [45]: ≥ 100 µM
- MIC [46]: ≥ 100 µM
- MIC [47]: ≥ 100 µM
Compound: CC(C)C[C@H](NC(=O)[C@H](Cc1cnc[nH]1)NC(=O)[C@H](CCCN=C(N)N)NC(=O)CNC(=O)[C@@H](NC(=O)[C@H](C)NC(=O)[C@@H](N)CO)C(C)C)C(=O)N[C@@H](CCCN=C(N)N)C(=O)N[C@@H](CCCN=C(N)N)C(=O)N[C@@H](Cc1ccccc1)C(=O)N[C@@H](CC(C)C)C(=O)N[C@@H](CC(C)C)C(=O)N[C@@H](CCCN=C(N)N)C(=O)N[C@@H](CCCCN)C(=O)N[C@@H](Cc1cnc[nH]1)C(=O)N[C@@H](CCCN=C(N)N)C(=O)N[C@@H](CCCCN)C(=O)N[C@@H](Cc1cnc[nH]1)C(=O)O [SAVGRHLRRFLLRKHRKH]

- MIC [48]: 2 µM (≈ 3.01 µg/mL)
- MIC [49]: 0.5 µM (≈ 0.751 µg/mL)
- MIC [50]: ≥ 32 µM
- MIC [51]: 2 µM (≈ 3.01 µg/mL)
Compound: CC[C@H](C)[C@H](NC(=O)[C@H](CCCN=C(N)N)NC(=O)[C@H](CCCCN)NC(=O)[C@H](CC(C)C)NC(=O)[C@H](CC(C)C)NC(=O)CNC(=O)[C@H](Cc1cnc[nH]1)NC(=O)[C@@H](NC(=O)[C@@H](N)C(C)C)[C@@H](C)CC)C(=O)N[C@@H](CCCCN)C(=O)N[C@H](C(=O)N[C@@H](CC(C)C)C(=O)N[C@@H](CC(C)C)C(N)=O)[C@@H](C)O [VIHGLLKRIKTLL]

From DBAASP
